Data from PubChem BioAssay (NCI).
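A five-concentration, 48-hour dose response in 96-well plates underlies each endpoint, interpolated linearly between surrounding concentrations. Here, GI50 denotes the concentration required for 50% inhibition of growth. The concentration for full growth arrest is given as TGI.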

Columns and labels:
Test in all cases: inhibition of tumour cell growth, NCI panel, 48 h
MCF7 breast = test system: MCF7 breast
OVCAR-4 ovarian = test system: OVCAR-4 ovarian
COLO 205 colon = test system: COLO 205 colon
DU-145 prostate = test system: DU-145 prostate
HOP-62 NSCLC = test system: HOP-62 NSCLC
RXF 393 renal = test system: RXF 393 renal
IGROV1 ovarian = test system: IGROV1 ovarian
786-0 renal = test system: 786-0 renal
M14 melanoma = test system: M14 melanoma
LOX IMVI melanoma = test system: LOX IMVI melanoma
TK-10 renal = test system: TK-10 renal
EKVX NSCLC = test system: EKVX NSCLC
SK-MEL-5 melanoma = test system: SK-MEL-5 melanoma
KM12 colon = test system: KM12 colon
NCI-H460 lung = test system: NCI-H460 lung
UACC-257 melanoma = test system: UACC-257 melanoma
OVCAR-8 ovarian = test system: OVCAR-8 ovarian
A549 NSCLC = test system: A549 NSCLC
CCRF-CEM leukemia = test system: CCRF-CEM leukemia
SK-MEL-28 melanoma = test system: SK-MEL-28 melanoma
BT-549 breast = test system: BT-549 breast
NCI-H522 lung = test system: NCI-H522 lung
SN12C renal = test system: SN12C renal
SW-620 colon = test system: SW-620 colon
UACC-62 melanoma = test system: UACC-62 melanoma
ACHN renal = test system: ACHN renal
OVCAR-3 ovarian = test system: OVCAR-3 ovarian
PC-3 prostate = test system: PC-3 prostate
NCI-H226 lung = test system: NCI-H226 lung
NCI-H23 lung = test system: NCI-H23 lung
MDA-MB-231 breast = test system: MDA-MB-231 breast
SF-539 CNS = test system: SF-539 CNS
RPMI-8226 leukemia = test system: RPMI-8226 leukemia
HS 578T breast = test system: HS 578T breast
SK-MEL-2 melanoma = test system: SK-MEL-2 melanoma
MDA-MB-435 = test system: MDA-MB-435
NCI/ADR-RES ovarian = test system: NCI/ADR-RES ovarian
K-562 leukemia = test system: K-562 leukemia
HCT-15 colon = test system: HCT-15 colon
SNB-19 CNS = test system: SNB-19 CNS
OVCAR-5 ovarian = test system: OVCAR-5 ovarian
HOP-92 NSCLC = test system: HOP-92 NSCLC
SK-OV-3 ovarian = test system: SK-OV-3 ovarian
HCT-116 colon = test system: HCT-116 colon
HT29 colon = test system: HT29 colon
A498 renal = test system: A498 renal
MOLT-4 leukemia = test system: MOLT-4 leukemia
U251 CNS = test system: U251 CNS
MALME-3M melanoma = test system: MALME-3M melanoma
HCC-2998 colon = test system: HCC-2998 colon
UO-31 renal = test system: UO-31 renal
T-47D breast = test system: T-47D breast
SNB-75 CNS = test system: SNB-75 CNS
SF-268 CNS = test system: SF-268 CNS

Cc1cc(Cl)nc(N(CCCNc2ccnc3cc(Cl)ccc23)Cc2cccs2)n1
GI50 (MCF7 breast): 1740 nM | TGI (MCF7 breast): 6.85 µM | GI50 (OVCAR-4 ovarian): 2810 nM | TGI (OVCAR-4 ovarian): 25.6 µM | GI50 (COLO 205 colon): 1390 nM | TGI (COLO 205 colon): 3.58 µM | GI50 (DU-145 prostate): 2230 nM | TGI (DU-145 prostate): 14.7 µM | GI50 (HOP-62 NSCLC): 1830 nM | TGI (HOP-62 NSCLC): 10.7 µM | GI50 (RXF 393 renal): 1370 nM | TGI (RXF 393 renal): 5.22 µM | GI50 (IGROV1 ovarian): 856 nM | TGI (IGROV1 ovarian): 6.2 µM | GI50 (786-0 renal): 1490 nM | TGI (786-0 renal): 4.35 µM | GI50 (M14 melanoma): 1230 nM | TGI (M14 melanoma): 2910 nM | GI50 (LOX IMVI melanoma): 1220 nM | TGI (LOX IMVI melanoma): 2980 nM | GI50 (TK-10 renal): 2070 nM | TGI (TK-10 renal): 12.1 µM | GI50 (EKVX NSCLC): 1990 nM | TGI (EKVX NSCLC): 12.7 µM | GI50 (SK-MEL-5 melanoma): 1420 nM | TGI (SK-MEL-5 melanoma): 2790 nM | GI50 (KM12 colon): 2610 nM | TGI (KM12 colon): 11 µM | GI50 (NCI-H460 lung): 1560 nM | TGI (NCI-H460 lung): 11 µM | GI50 (UACC-257 melanoma): 2190 nM | TGI (UACC-257 melanoma): 5.49 µM | GI50 (OVCAR-8 ovarian): 2060 nM | TGI (OVCAR-8 ovarian): 10.4 µM | GI50 (A549 NSCLC): 2960 nM | TGI (A549 NSCLC): 12.5 µM | GI50 (CCRF-CEM leukemia): 2560 nM | TGI (CCRF-CEM leukemia): > 100 µM | GI50 (SK-MEL-28 melanoma): 1790 nM | TGI (SK-MEL-28 melanoma): 5.78 µM | GI50 (BT-549 breast): 2520 nM | TGI (BT-549 breast): 9.13 µM | GI50 (NCI-H522 lung): 1310 nM | TGI (NCI-H522 lung): 4.31 µM | GI50 (SN12C renal): 1400 nM | TGI (SN12C renal): 12.5 µM | GI50 (SW-620 colon): 1100 nM | TGI (SW-620 colon): 8.75 µM | GI50 (UACC-62 melanoma): 1700 nM | TGI (UACC-62 melanoma): 4.51 µM | GI50 (ACHN renal): 2000 nM | TGI (ACHN renal): 11.5 µM | GI50 (OVCAR-3 ovarian): 2190 nM | TGI (OVCAR-3 ovarian): 13.4 µM | GI50 (PC-3 prostate): 1830 nM | TGI (PC-3 prostate): 13.7 µM | GI50 (NCI-H226 lung): 2560 nM | TGI (NCI-H226 lung): 15.5 µM | GI50 (NCI-H23 lung): 1280 nM | TGI (NCI-H23 lung): 5.8 µM | GI50 (MDA-MB-231 breast): 1240 nM | TGI (MDA-MB-231 breast): 3.4 µM | GI50 (SF-539 CNS): 1810 nM | TGI (SF-539 CNS): 5.85 µM | GI50 (RPMI-8226 leukemia): 830 nM | TGI (RPMI-8226 leukemia): 3.84 µM | GI50 (HS 578T breast): 2210 nM | TGI (HS 578T breast): 12.9 µM | GI50 (SK-MEL-2 melanoma): 2290 nM | TGI (SK-MEL-2 melanoma): 6.54 µM | GI50 (MDA-MB-435): 1940 nM | TGI (MDA-MB-435): 6.09 µM | GI50 (NCI/ADR-RES ovarian): 1060 nM | TGI (NCI/ADR-RES ovarian): 6.53 µM | GI50 (K-562 leukemia): 496 nM | TGI (K-562 leukemia): 8.55 µM | GI50 (HCT-15 colon): 1430 nM | TGI (HCT-15 colon): 10.1 µM | GI50 (SNB-19 CNS): 2350 nM | TGI (SNB-19 CNS): 13.5 µM | GI50 (OVCAR-5 ovarian): 1390 nM | TGI (OVCAR-5 ovarian): 13.7 µM | GI50 (HOP-92 NSCLC): 1740 nM | TGI (HOP-92 NSCLC): 7.78 µM | GI50 (SK-OV-3 ovarian): 3.27 µM | TGI (SK-OV-3 ovarian): 12.6 µM | GI50 (HCT-116 colon): 437 nM | TGI (HCT-116 colon): 2640 nM | GI50 (HT29 colon): 570 nM | TGI (HT29 colon): 4.04 µM | GI50 (A498 renal): 714 nM | TGI (A498 renal): 6.99 µM | GI50 (MOLT-4 leukemia): 1770 nM | TGI (MOLT-4 leukemia): 11.8 µM | GI50 (U251 CNS): 2180 nM | TGI (U251 CNS): 10.2 µM | GI50 (MALME-3M melanoma): 1640 nM | TGI (MALME-3M melanoma): 3.46 µM | GI50 (HCC-2998 colon): 2090 nM | TGI (HCC-2998 colon): 6.12 µM | GI50 (UO-31 renal): 456 nM | TGI (UO-31 renal): 3.71 µM | GI50 (T-47D breast): 1820 nM | TGI (T-47D breast): 8.02 µM | GI50 (SNB-75 CNS): 2080 nM | TGI (SNB-75 CNS): 13.6 µM | GI50 (SF-268 CNS): 3.36 µM | TGI (SF-268 CNS): 16.8 µM
